Laboratory results published in patent US7884127B2, “Inhibitors of cyclin dependent kinases and their use” (Pirimal Life Sciences Ltd., priority 2002, dated 2011).

melting point [°C] | SMILES
189 to 190 | CN1CC[C@@H](c2c(O)cc(O)c3c(=O)cc(-c4cc(O)ccc4Cl)oc23)[C@@H]1CO.Cl
95 to 97 | COc1cc(OC)c2c(=O)cc(-c3ccccc3Cl)oc2c1[C@@H]1CCN(C)[C@H]1CO (racemic) [Example 7, (±)-trans-2-(2-Chloro-phenyl)-8-(2-hydroxymethyl-1-methyl-pyrrolidin-3-yl)-5,7-dimethoxy-chromen-4-one]
253 to 254 | CN1CC[C@@H](c2c(O)cc(O)c3c(=O)cc(-c4cc(F)ccc4Cl)oc23)[C@@H]1CO (racemic) [Example 23, (±)-trans-2-(2-Chloro-5-fluoro-phenyl)-5,7-dihydroxy-8-(2-hydroxymethyl-1-methyl-pyrrolidin-3-yl)-chromen-4-one]
192 to 193 | CN1CC[C@@H](c2c(O)cc(O)c3c(=O)cc(-c4cc(F)ccc4Cl)oc23)[C@@H]1CO.CS(=O)(=O)O (racemic) [Example 25, (±)-trans-2-(2-Chloro-5-fluoro-phenyl)-5,7-dihydroxy-8-(2-hydroxymethyl-1-methyl-pyrrolidin-3-yl)-chromen-4-one methane sulfonate]
114 to 115 | COc1cc(OC)c2c(=O)cc(-c3ccc(C(F)(F)F)cc3)oc2c1[C@@H]1CCN(C)[C@H]1CO (racemic) [Example 62, (±)-trans-8-(2-Hydroxymethyl-1-methyl-pyrrolidin-3-yl)-5,7-dimethoxy-2-(4-trifluoromethyl-phenyl)-chromen-4-one]
238 | CN1CC[C@@H](c2c(O)cc(O)c3c(=O)cc(-c4ccc(C(F)(F)F)cc4)oc23)[C@@H]1CO (racemic) [Example 63, (±)-trans-5,7-Dihydroxy-8-(2-hydroxymethyl-1-methyl-pyrrolidin-3-yl)-2-(4-trifluoromethyl-phenyl)-chromen-4-one]
214 to 216 | COc1cc(OC)c2c(=O)cc(-c3ccc(C#N)cc3)oc2c1[C@@H]1CCN(C)[C@H]1CO (racemic) [Example 81, (±)-trans-4-[8-(2-Hydroxymethyl-1-methyl-pyrrolidin-3-yl)-5,7-dimethoxy-4-oxo-4H-chromen-2-yl]-benzonitrile]
212 to 213 | CN1CC[C@@H](c2c(O)cc(O)c3c(=O)cc(-c4ccccc4O)oc23)[C@@H]1CO (racemic) [Example 96, (±)-trans-5,7-Dihydroxy-8-(2-hydroxymethyl-1-methyl-pyrrolidin-3-yl)-2-(2-hydroxy-phenyl)-chromen-4-one]
208 to 210 | CNc1ccc(Cl)c(-c2cc(=O)c3c(O)cc(O)c([C@@H]4CCN(C)[C@H]4CO)c3o2)c1 (racemic) [Example 102, (±)-trans-2-(2-Chloro-5-methylamino-phenyl)-5,7-dihydroxy-8-(2-hydroxymethyl-1-methyl-pyrrolidin-3-yl)-chromen-4-one]
> 300 | CN1CC[C@@H](c2c(O)cc(O)c3c(=O)cc(-c4ccc(O)cc4Cl)oc23)[C@@H]1CO (racemic) [Example 104, (±)-trans-2-(2-Chloro-4-hydroxy-phenyl)-5,7-dihydroxy-8-(2-hydroxymethyl-1-methyl-pyrrolidin-3-yl)-chromen-4-one]
218 to 219 | CN1CC[C@@H](c2c(O)cc(O)c3c(=O)cc(-c4ccccc4Cl)oc23)[C@@H]1CN (racemic) [Example 109, (±)-trans-8-(2-Aminomethyl-1-methyl-pyrrolidin-3-yl)-2-(2-chloro-phenyl)-5,7-dihydroxy-chromen-4-one]
107 to 108 | CN1CC[C@@H](c2c(O)cc(O)c3c(=O)cc(-c4ccccc4Cl)oc23)[C@@H]1CC#N (racemic) [Example 111, (±)-trans-{3-[2-(2-Chloro-phenyl)-5,7-dihydroxy-4-oxo-4H-chromen-8-yl]-1-methyl-pyrrolidin-2-yl}-acetonitrile]
249 to 250 | CN1CC[C@@H](c2c(O)cc(O)c3c(=O)cc(-c4ccccc4Cl)oc23)[C@@H]1Cn1ccnc1 (racemic) [Example 113, (±)-trans-2-(2-Chloro-phenyl)-5,7-dihydroxy-8-(2-imidazol-1-ylmethyl-1-methyl-pyrrolidin-3-yl)-chromen-4-one]
205 to 206 | CN1CC[C@@H](c2c(O)cc(O)c3c(=O)cc(-c4ccccc4Cl)oc23)[C@@H]1CS (racemic) [Example 115, (±)-trans-2-(2-Chloro-phenyl)-5,7-dihydroxy-8-(2-mercaptomethyl-1-methyl-pyrrolidin-3-yl)-chromen-4-one]
94 to 96 | CCCN1CC[C@@H](c2c(O)cc(O)c3c(=O)cc(-c4ccccc4Cl)oc23)[C@@H]1CO (racemic) [Example 132, (±)-trans-2-(2-Chloro-phenyl)-5,7-dihydroxy-8-(2-hydroxymethyl-1-propyl-pyrrolidin-3-yl)-chromen-4-one]
165 to 167 | COc1cc(OC)c2c(=O)cc(-c3ccccc3Cl)oc2c1[C@@H]1CCN(C)[C@H]1C(=O)O (racemic) [Example 143, (±)-trans-3-[2-(2-Chloro-phenyl)-5,7-dimethoxy-4-oxo-4H-chromen-8-yl]-1-methyl-pyrrolidine-2-carboxylic acid]

melting point [°C] | SMILES
295 to 297 | CN1CC[C@@H](c2c(O)cc(O)c3c(=O)cc(-c4ccccc4Cl)oc23)[C@@H]1C(=O)O (racemic) [Example 144, (±)-trans-3-[2-(2-Chloro-phenyl)-5,7-dihydroxy-4-oxo-4H-chromen-8-yl]-1-methyl-pyrrolidine-2-carboxylic acid]
91 to 93 | COc1cc(OC)c2c(=O)cc(-c3ccccc3Cl)oc2c1[C@@H]1CCN(C)[C@H]1CO [Example 13, (+)-trans-2-(2-Chloro-phenyl)-8-(2-hydroxymethyl-1-methyl-pyrrolidin-3-yl)-5,7-dimethoxy-chromen-4-one]
233 to 235 | CN1CC[C@@H](c2c(O)cc(O)c3c(=O)cc(-c4ccccc4I)oc23)[C@@H]1CO [Example 19, (+)-trans-5,7-Dihydroxy-8-(2-hydroxymethyl-1-methyl-pyrrolidin-3-yl)-2-(2-iodo-phenyl)-chromen-4-one]
206 to 208 | CN1CC[C@@H](c2c(O)cc(O)c3c(=O)cc(-c4ccccc4F)oc23)[C@@H]1CO [Example 21, (+)-trans-2-(2-Fluoro-phenyl)-5,7-dihydroxy-8-(2-hydroxymethyl-1-methyl-pyrrolidin-3-yl)-chromen-4-one]
206 to 208 | Cc1ccc(Cl)c(-c2cc(=O)c3c(O)cc(O)c([C@@H]4CCN(C)[C@H]4CO)c3o2)c1 [Example 38, (+)-trans-2-(2-Chloro-5-methyl-phenyl)-5,7-dihydroxy-8-(2-hydroxymethyl-1-methyl-pyrrolidin-3-yl)-chromen-4-one]
186 | CN1CC[C@@H](c2c(O)cc(O)c3c(=O)cc(-c4ccc([N+](=O)[O-])cc4Br)oc23)[C@@H]1CO [Example 42, (+)-trans-2-(2-Bromo-4-nitro-phenyl)-5,7-dihydroxy-8-(2-hydroxymethyl-1-methyl-pyrrolidin-3-yl)-chromen-4-one]
212 to 215 | CN1CC[C@@H](c2c(O)cc(O)c3c(=O)cc(-c4ccccc4)oc23)[C@@H]1CO [Example 57, (+)-trans-5,7-Dihydroxy-8-(2-hydroxymethyl-1-methyl-pyrrolidin-3-yl)-2-phenyl-chromen-4-one]
145 to 147 | Cc1cc(C#N)ccc1-c1cc(=O)c2c(O)cc(O)c([C@@H]3CCN(C)[C@H]3CO)c2o1 [Example 60, (+)-trans-4-[5,7-Dihydroxy-8-(2-hydroxymethyl-1-methyl-pyrrolidin-3-yl)-4-oxo-4H-chromen-2-yl]-3-methyl-benzonitrile]
235 to 237 | CN1CC[C@@H](c2c(O)cc(O)c3c(=O)cc(-c4ccc(C(F)(F)F)cc4)oc23)[C@@H]1CO [Example 65, (+)-trans-5,7-Dihydroxy-8-(2-hydroxymethyl-1-methyl-pyrrolidin-3-yl)-2-(4-trifluoromethyl-phenyl)-chromen-4-one]
218 to 220 | CN1CC[C@@H](c2c(O)cc(O)c3c(=O)cc(-c4cccs4)oc23)[C@@H]1CO [Example 68, (+)-trans-5,7-Dihydroxy-8-(2-hydroxymethyl-1-methyl-pyrrolidin-3-yl)-2-thiophen-2-yl-chromen-4-one]
218 to 220 | CN1CC[C@@H](c2c(O)cc(O)c3c(=O)cc(-c4cccc(F)c4)oc23)[C@@H]1CO [Example 76, (+)-trans-2-(3-Fluoro-phenyl)-5,7-dihydroxy-8-(2-hydroxymethyl-1-methyl-pyrrolidin-3-yl)-chromen-4-one]
125 to 127 | CN1CC[C@@H](c2c(O)cc(O)c3c(=O)cc(-c4cccnc4Cl)oc23)[C@@H]1CO [Example 90, (+)-trans-2-(2-Chloro-pyridin-3-yl)-5,7-dihydroxy-8-(2-hydroxymethyl-1-methyl-pyrrolidin-3-yl)-chromen-4-one]
275 to 277 | CN1CC[C@@H](c2c(O)cc(O)c3c(=O)cc(-c4ccc([N+](=O)[O-])cc4)oc23)[C@@H]1CO [Example 92, (+)-trans-5,7-Dihydroxy-8-(2-hydroxymethyl-1-methyl-pyrrolidin-3-yl)-2-(4-nitro-phenyl)-chromen-4-one]
172 to 174 | CN1CC[C@@H](c2c(O)cc(O)c3c(=O)cc(-c4ccc(N)cc4)oc23)[C@@H]1CO [Example 94, (+)-trans-2-(4-Amino-phenyl)-5,7-dihydroxy-8-(2-hydroxymethyl-1-methyl-pyrrolidin-3-yl)-chromen-4-one]
237 to 239 | CN1CC[C@@H](c2c(O)cc(O)c3c(=O)cc(-c4ccc(C#N)cc4Cl)oc23)[C@@H]1CO [Example 98, (+)-trans-3-Chloro-4-[5,7-dihydroxy-8-(2-hydroxymethyl-1-methyl-pyrrolidin-3-yl)-4-oxo-4H-chromen-2-yl]-benzonitrile]
155 to 156 | CN1CC[C@@H](c2c(O)cc(O)c3c(=O)cc(-c4ccc(Br)cc4Cl)oc23)[C@@H]1CO [Example 100, (+)-trans-2-(4-Bromo-2-chloro-phenyl)-5,7-dihydroxy-8-(2-hydroxymethyl-1-methyl-pyrrolidin-3-yl)-chromen-4-one]
